Experimental data taken from US5989846A, “Assays to identify inducers of plant defense resistance” (Rutgers, The State University of New Jersey, priority 1995, dated 1999).

Assays:
[1] = tested on: salicylic acid binding protein; assay: Competitive [14C] salicylic acid binding assay (spin-column); design: species or system tobacco; conditions: [14C] salicylic acid 20 μM
In short: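 Plant-fractionated binding protein incubated 2 hr at 4 °C with 5 μM-20 μM [14C]salicylic acid, with analogues added to the mixture as competitors. Bound ligand separated from free by spin-column gel exclusion (6 kDa limit) and counted; binding activity compared with analogue-free controls.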

H2 O2 = assay: Abundance of H2O2 in treated tobacco leaves; assay type: in vivo; conditions: FIG. 11
Source text: The abundance of H2 O2 increased in SA- or 3AT-treated tobacco leaves by 50-60% over the control levels observed in water-treated leaves. […] Thus, elevated levels of H2 O2, and in turn, enhanced oxidative stress in vivo, were consistent with inhibition of catalase activity by SA observed in vitro.

[2] = biological target: salicylic acid binding protein; assay: Scatchard analysis of [14C] salicylic acid binding; conditions: tobacco SABP; [14C] salicylic acid 2 to 70 μM
Description: Kd is defined herein as the concentration of salicylic acid needed to occupy 50% of the binding sites on the salicylic acid binding protein when the binding process reaches its equilibrium. Thus, a smaller value of Kd indicates a stronger interaction between salicylic acid and salicylic acid binding protein and vice versa. Kd is determined by measuring the amounts of salicylic acid bound to salicylic acid binding-protein at various concentrations of salicylic acid and then plotting the ratio of bound to free, salicylic acid concentrations versus bound salicylic acid concentrations to give a linear plot with a slope of -1/Kd. […]
A key element during the characterization and the purification process is a simple, inexpensive, sensitive and reliable method for determining the salicylic acid binding activity. […] (specifically radioactivity 55 Ci/mol; purchased from New England Nuclear), 150 μl of proteins binding sample was loaded onto the tube column, which was then rapidly centrifuged for 2 minutes at full speed and the solution of proteins and bound [^14 C-salicylic acid] that was excluded from the gel was collected into another tube that had been placed under the tube column during the centrifugation. […]

`O=C(O)c1ccccc1O` [salicylic acid, 2-hydroxybenzoic acid] was tested, and the “Inhibition (%) 2×” value ([1]; 40 μM (2×) unlabeled competitor) was 50%, the “Inhibition (%) 10×” value ([1]; 200 μM (10×) unlabeled competitor) was 91% and the “Increase in abundance of H2O2 over water-treated leaves” value (H2 O2) was 50-60%. For the same molecule, the Kd [2] was 14 ± 5 µM.
